These results are taken from patent US10683290B2, “Tricyclic compounds as anticancer agents” (BRISTOL-MYERS SQUIBB COMPANY, priority 2015, dated 2020).

The target in the test is BRD4 (Homo sapiens, UniProt O60885). The test can be described thus: biochemical. The format is binding. The following applies: one of the FRET assays described; read-out: FRET BRD4 IC50.

With `[2H]C([2H])([2H])c1nnn(C)c1-c1cc2c(cc1F)c1ncc(C(C)(C)O)cc1n2[C@H](c1ccccc1)C1CCOCC1` [Example 32, 2-{8-Fluoro-7-[4-(^2H3)methyl-1-methyl-1H-1,2,3-triazol-5-yl]-5-[(S)-(oxan-4-yl)(phenyl)methyl]-5H-pyrido[3,2-b]indol-3-yl}propan-2-ol], the IC50 is less than 1 nM. As to `[2H]C([2H])([2H])c1nnn(C)c1-c1cc2c(cc1F)c1ncc(C(C)(C)O)cc1n2C(c1ncccc1C)C1CCOCC1` (single isomer, unassigned) [Example 42, 2-{8-fluoro-7-[4-(^2H3)methyl-1-methyl-1H-1,2,3-triazol-5-yl]-5-[(3-methylpyridin-2-yl)(oxan-4-yl)methyl}-5H-pyrido[3,2-b]indol-3-yl]propan-2-ol], the IC50 is less than 5 nM. `[2H]C([2H])([2H])c1nnn(C)c1-c1cc2c(cc1Cl)c1ncc(C(C)(C)O)cc1n2C(c1ccccn1)C1CCOCC1` (single isomer, unassigned) [Example 81, 2-{8-chloro-7-[4-(^2H3)methyl-1-methyl-1H-1,2,3-triazol-5-yl]-5-[oxan-4-yl(pyridin-2-yl)methyl]-5H-pyrido[3,2-b]indol-3-yl}propan-2-ol]: the IC50 was less than 1500 nM. Consider `[2H]C([2H])([2H])c1nnn(C)c1-c1cc2c(cc1F)c1ncc(S(C)(=O)=O)cc1n2[C@H](c1ccccc1F)C1CCOCC1` [Example 28, 5-{8-Fluoro-5-[(S)-(2-fluorophenyl)(oxan-4-yl)methyl]-3-methanesulfonyl-5H-pyrido[3,2-b]indol-7-yl}-4-(^2H3)methyl-1-methyl-1H-1,2,3-triazole], for which the IC50 was less than 1 nM.

For `Cc1nnn(C)c1-c1ccc2c3ncc(C(C)(C)O)cc3n(C(CCC(F)(F)F)CCC(F)(F)F)c2c1` [Example 4, 2-[7-(dimethyl-1H-1,2,3-triazol-5-yl)-5-(1,1,1,7,7,7-hexafluoroheptan-4-yl)-5H-pyrido[3,2-b]indol-3-yl]propan-2-ol], the IC50 is less than 5 nM. For `[2H]C([2H])([2H])c1nnn(C)c1-c1ccc2c3ncc(C(C)(C)O)cc3n(C(c3ncccc3F)C3CCOCC3)c2c1F` (single isomer, unassigned) [Example 85, 2-{6-Fluoro-5-[(3-fluoropyridin-2-yl)(oxan-4-yl)methyl]-7-[4-(^2H3)methyl-1-methyl-1H-1,2,3-triazol-5-yl]-5H-pyrido[3,2-b]indol-3-yl}propan-2-ol] the value was less than 5 nM; for `Cc1nnn(C)c1-c1ccc2c3ncc(C(C)(C)O)cc3n(C(CCC(F)(F)F)c3ccccn3)c2c1` (single isomer, unassigned) [Example 6, 2-[7-(dimethyl-1H-1,2,3-triazol-5-yl)-5-[4,4,4-trifluoro-1-(pyridin-2-yl)butyl]-5H-pyrido[3,2-b]indol-3-yl]propan-2-ol], less than 5 nM. The result for `[2H]C([2H])([2H])c1nnn(C)c1-c1cc2c(cc1F)c1ncc(C(C)(C)O)cc1n2C(CCOC)c1ccccc1` (single isomer, unassigned) [Example 63, 2-[8-fluoro-5-(3-methoxy-1-phenylpropyl)-7-[4-(^2H3)methyl-1-methyl-1H-1,2,3-triazol-5-yl]-5H-pyrido[3,2-b]indol-3-yl]propan-2-ol] reads less than 5 nM. For `Cc1nnn(C)c1-c1cc(Cl)c2c3ncc(C(C)(C)O)cc3n([C@H](c3ccccc3)C3CCOCC3)c2c1` [Example 13, 2-[9-Chloro-7-(dimethyl-1H-1,2,3-triazol-5-yl)-5-[(S)-oxan-4-yl(phenyl)methyl]-5H-pyrido[3,2-b]indol-3-yl]propan-2-ol] the value was less than 1 nM; for `Cc1nnn(C)c1-c1cc2c(cc1F)c1ncc(C(C)(C)O)cc1n2C(c1ccc(F)cn1)C1CCOCC1` (single isomer, unassigned) [Example 70, 2-[7-(dimethyl-1H-1,2,3-triazol-5-yl)-8-fluoro-5-[(5-fluoropyridin-2-yl)(oxan-4-yl)methyl]-5H-pyrido[3,2-b]indol-3-yl]propan-2-ol], less than 5 nM; for `[2H]C([2H])([2H])c1nnn(C)c1-c1cc2c(cc1Cl)c1ncc(C(C)(C)O)cc1n2C(c1ccccn1)C1CCOCC1` (single isomer, unassigned) [Example 80, 2-{8-chloro-7-[4-(^2H3)methyl-1-methyl-1H-1,2,3-triazol-5-yl]-5-[oxan-4-yl(pyridin-2-yl)methyl]-5H-pyrido[3,2-b]indol-3-yl}propan-2-ol], less than 1500 nM.

As usually defined, the IC50 is the point on the concentration scale where inhibition reaches its midpoint.
